Test results taken from patent EP1481666A1, “A composition for re-establishment of the vaginal ecosystem” (ROTTAPHARM S.R.L., priority 2003, dated 2004).

System: Lactobacillus acidophilus ATCC 314
Assay: Test 1: comparison between nutrient substrates (use of substrate added to MRS broth base by Lactobacillus)
Format: cell-based, Lactobacillus acidophilus ATCC 314 (human origin)
Conditions: for Lactic acid (%): HPLC; for Lactic acid (%) / D.O. / pH: 37°C, 24 hours; for D.O.: optical density of the culture; for growth and production of lactic acid: concentrations from 0.5 to 2.0%; for pH: starting pH 5.7±0.2
Description: Since the Lactobacilli control the vaginal pH by means of the production of lactic acid it appeared to be useful to verify, both directly and indirectly, their capacity to utilise the various substrates proposed for the production of lactic acid and consequently their utility in the formulation of the composition.
• Lactobacillus acidophilus ATCC 314 (human origin) • Lactobacillus acidophilus wt (from vaginal swab)
• MRS broth (Lactobacillus broth according to De Man, Rogose) Merck • MRS broth base (without D(+)-glucose) • Series of MRS broth base media to which maltodextrins were added in percentages lying between 0.1 and 5% • Series of MRS broth base media to which glycogen was added in quantities lying between 0.5 and 2% • Series of MRS broth base media to which glucose was added in quantities lying between 0.1 and 2% • Series of MRS broth base media to which lactose was added in quantities lying between 0.5 and 2% Note: the pH of the media was always 5.7±0.2.
After having prepared fresh cultures of Lactobacilli in agar, an inoculation into five ml of MRS broth was incubated at 37°C for 24 hours. Aliquotes were prepared from 60 ml of the previously described media and in each of these were inoculated 600 µl of the culture in agar, with subsequent incubation at 37°C for 24 hours. As negative control aliquotes of 3 ml of the above-described media without inoculation of Lactobacilli were incubated. As positive control Merck MRS broth was utilised.
After 24 hours of incubation the optical density of the cultures was measured, the pH of the media was determined after centrifugation and filtration of the supernatant with a 0.45µ filter. The lactic acid present in the culture was also quantified by the HPLC method utilising as a control a laboratory standard of the same. These evaluation parameters have the following significance: • An increase in optical density confirms the growth of Lactobacilli; • Reduction in pH indicates the formation of lactic acid; • The quantitative determination of the lactic acid measures the efficiency of the use of the nutrient substrate by the Lactobacilli.

[1] = result in words, concentration of 0.1%
[2] = substrate 0.5 % in MRS broth base
[3] = substrate 1.0 % in MRS broth base
[4] = substrate 2.0 % in MRS broth base

OC[C@H]1OC(O)[C@H](O)[C@@H](O)[C@@H]1O (stereo partly shown) [GLU, Glucose]
Lactic acid (%) (substrate 0.1 %): 0.17%
Lactic acid (%) (substrate 0.5 %): 0.90%
Lactic acid (%) (substrate 1.0 %): 1.80%
Lactic acid (%) (substrate 2.0 %): 2.43%
D.O. (substrate 0.1 %): 0.665
D.O. (substrate 0.5 %): 1.540
D.O. (substrate 1.0 %): 2.593
D.O. (substrate 2.0 %): 2.540
utilised for the growth of Lactobacillus [1]: significant
utilised for the production of lactic acid [1]: hardly utilised
growth and production of lactic acid (result in words): utilised in a useful and dose-dependent manner
pH (substrate 0.1 % in MRS broth base): 5.56
pH [2]: 4.74
pH [3]: 4.33
pH [4]: 4.57

OC[C@H]1O[C@@H](O[C@H]2[C@H](O)[C@@H](O)C(O)O[C@@H]2CO)[C@H](O)[C@@H](O)[C@H]1O (stereo partly shown) [LA, Lactose]
Lactic acid (%) (substrate 0.5 %): <0.10%
Lactic acid (%) (substrate 1.0 %): <0.10%
Lactic acid (%) (substrate 2.0 %): <0.10%
D.O. (substrate 0.5 %): 0.218
D.O. (substrate 1.0 %): 0.221
D.O. (substrate 2.0 %): 0.179
growth and production of lactic acid (result in words): rather poor
pH [2]: 5.88
pH [3]: 5.91
pH [4]: 5.94
